# Measurements: patent publication US10138230B2, “Autotaxin inhibitors” (CANCER RESEARCH TECHNOLOGY LIMITED, priority 2015, dated 2018)
# Counter-ions that a name gives are not always drawn.
# Molecular target: human recombinant ATX (Homo sapiens (Human), UniProt Q13822)
# Assay: Autotaxin (ATX) activity Quanta Red assay
# Format: biochemical
# Settings: 15 μM Rac-1-Palmitoyl-glycero-3-phosphocholine, 2 hours room temperature, determined in duplicate
# Protocol: The ATX enzyme assay (Quanta Red assay) described in accompanying Example section may be used to measure the pharmacological effects of the compounds of the present invention.
# Autotaxin (ATX) Activity Quanta Red Assay
# Measuring ATX activity using an enzyme coupled Quanta Red assay (Thermo Scientific—Pierce Protein Research Products, Product #15159) was determined as follows. 8 μL human recombinant ATX (final concentration 0.8 μg/mL) in 1× Assay buffer containing 50 mM Tris-HCl (pH 8.0), 5 mM CaCl2 was added to an opaque black flat-bottom 384-well plate (Corning, #3575) containing 2 μL test compound in 40% DMSO (4% final DMSO concentration). 10 μL of Quanta Red, Horseradish peroxidase (HRP), Choline Oxidase (CO), Rac-1-Palmitoyl-glycero-3-phosphocholine solution (final concentration 1:250 for Quanta Red, 0.5units/ml HRP, 0.5units/ml CO, 15 μM Rac-1-Palmitoyl-glycero-3-phosphocholine) in 1× assay buffer (as described previously) was added to each well to start the reaction and the plate was incubated at room temperature for 2 hours. The reaction was stopped after 2 hours with a 20 μL addition of Quanta Red Stop solution (1:20 dilution in distilled water). The above-described mixture with DMSO alone was used as a positive control whereas that with DMSO alone without ATX was taken as a negative control.
# For each test compound, ten concentrations were measured covering a range of 6.1 nM to 120 μM to determine IC50 values. The top concentration was decreased to 1.2 μM when a test compound's IC50 value was evaluated in low nanomolar range. Fluorescence was determined in a BMG Labtech Pherastar plus plate reader ([…]). Data were analysed using Excel fit software. IC50 values were determined in duplicate.
row,IC50 [nM],Structure (SMILES)
1,3,"O=C(NC1CC(=O)N(c2ccc(CN3CCCCCC3)cc2)C1)c1nnc(CCc2ccc(Cl)cc2)s1 (stereo not drawn) [Compound F134, N-[1-[4-(azepan-1-ylmethyl)phenyl]-5-oxo-pyrrolidin-3-yl]-5-[2-(4-chlorophenyl)ethyl]-1,3,4-thiadiazole-2-carboxamide]"
2,3,"O=C(N[C@H]1CC(=O)N(c2ccc(CN3CCOCC3)cc2)C1)c1nnc(CCc2ccc(Cl)cc2)s1 [Compound F135, 5-[2-(4-chlorophenyl)ethyl]-N-[(3S)-1-[4-(morpholinomethyl)phenyl]-5-oxo-pyrrolidin-3-yl]-1,3,4-thiadiazole-2-carboxamide]"
3,4,"CC1CCN(Cc2ccc(N3CC(NC(=O)c4nnc(CCc5ccc(Cl)cc5)s4)CC3=O)cc2)CC1 (stereo not drawn) [Compound F136, 5-[2-(4-chlorophenyl)ethyl]-N-[1-[4-[(4-methyl-1-piperidyl)methyl]phenyl]-5-oxo-pyrrolidin-3-yl]-1,3,4-thiadiazole-2-carboxamide]"
4,4,"CC1CCN(Cc2ccc(N3C[C@@H](NC(=O)c4nnc(CCc5ccc(Cl)cc5)s4)CC3=O)cc2)CC1 [Compound F137, 1-{4-[(S)-4-({5-[2-(4-chloro-phenyl)-ethyl]-[1,3,4]thiadiazole-2-carbonyl}-amino)-2-oxo-pyrrolidin-1-yl]-benzyl}-4-methyl-piperidine hydrochloride]"
5,5,"CC1CCN(Cc2ccc(N3C[C@H](NC(=O)c4nnc(CCc5ccc(Cl)cc5)s4)CC3=O)cc2)CC1 [Compound F138, 5-[2-(4-chlorophenyl)ethyl]-N-[(3R)-1-[4-[(4-methyl-1-piperidyl)methyl]phenyl]-5-oxo-pyrrolidin-3-yl]-1,3,4-thiadiazole-2-carboxamide]"
6,5,"O=C(NC1CC(=O)N(c2ccc(CN3CC4CC4C3)cc2)C1)c1nnc(CCc2ccc(Cl)cc2)s1 (stereo not drawn) [Compound F140, N-[1-[4-(3-azabicyclo[3.1.0]hexan-3-ylmethyl)phenyl]-5-oxo-pyrrolidin-3-yl]-5-[2-(4-chlorophenyl)ethyl]-1,3,4-thiadiazole-2-carboxamide]"
7,9,"COCCN(C)Cc1ccc(N2CC(NC(=O)c3nnc(CCc4ccc(Cl)cc4)s3)CC2=O)cc1 (stereo not drawn) [Compound F142, 5-[2-(4-chlorophenyl)ethyl]-N-[1-[4-[[2-methoxyethyl(methyl)amino]methyl]phenyl]-5-oxo-pyrrolidin-3-yl]-1,3,4-thiadiazole-2-carboxamide]"
8,2,"O=C(N[C@@H]1CC(=O)N(c2ccc(CN3CCCCC3)cc2)C1)c1cc(CCc2ccc(Cl)cc2)on1 [Compound F143, 5-[2-(4-chlorophenyl)ethyl]-N-[(3R)-5-oxo-1-[4-(1-piperidylmethyl)phenyl]pyrrolidin-3-yl]isoxazole-3-carboxamide]"
9,2,"O=C(NC1CC(=O)N(c2ccc(CN3CCCCC3)cc2)C1)c1cc(CCc2ccc(Cl)cc2)on1 (stereo not drawn) [Compound F144, 5-[2-(4-chlorophenyl)ethyl]-N-[5-oxo-1-[4-(1-piperidylmethyl)phenyl]pyrrolidin-3-yl]isoxazole-3-carboxamide]"
10,3,"O=C(N[C@H]1CC(=O)N(c2ccc(CN3CCCCC3)cc2)C1)c1cc(CCc2ccc(Cl)cc2)on1 [Compound F145, 5-[2-(4-chlorophenyl)ethyl]-N-[(3S)-5-oxo-1-[4-(1-piperidylmethyl)phenyl]pyrrolidin-3-yl]isoxazole-3-carboxamide]"
11,2,"O=C(Nc1nnc(CCC2CCCCC2)s1)C1CC(=O)N(c2ccc(CN3CCOCC3)cc2)C1 (stereo not drawn) [Compound F147, N-[5-(2-cyclohexylethyl)-1,3,4-thiadiazol-2-yl]-1-[4-(morpholinomethyl)phenyl]-5-oxo-pyrrolidine-3-carboxamide]"
12,6,"CN(Cc1ccc(N2C[C@@H](C(=O)Nc3ccc(CCc4ccc(F)cc4)nn3)CC2=O)cc1)C1CCOC1 (stereo partly drawn) [Compound F148, (3S)-N-[6-[2-(4-fluorophenyl)ethyl]pyridazin-3-yl]-1-[4-[[methyl(tetrahydrofuran-3-yl)amino]methyl]phenyl]-5-oxo-pyrrolidine-3-carboxamide]"
